Test results from patent publication US20070049564A1 (Wyeth, priority 2005, published 2007).
In brackets after ≈: the same amount, converted by molar mass. Like-named read-outs stand apart in the source and are kept apart here.

Key:
E. coli = assay: Range of MIC for E. coli strains; conditions: Escherichia coli
Staph. = assay: Range of MIC for Staph. strains, including MRSA; conditions: Staphylococcus aureus, MRSA
[1] = 20 h, read-out: Range of MIC, E. coli (Mouse Serum)
[2] = read-out: Range of MIC, E. coli (Water)
[3] = read-out: Range of MIC, Staph (Mouse Serum)
[4] = read-out: Range of MIC, Staph (Water)

| Compound | MIC (E. coli; [1]) | MIC (E. coli; [2]) | MIC (Staph.; [3]) | MIC (Staph.; [4]) |
| --- | --- | --- | --- | --- |
| CN(C)c1cc(NC(=O)CN(C(=O)OCOC(=O)COc2ccc(F)cc2)C(C)(C)C)c(O)c2c1C[C@H]1C[C@H]3[C@H](N(C)C)C(O)=C(C(N)=O)C(=O)[C@@]3(O)C(O)=C1C2=O [Example 64] | < 0.12 µg/mL | 0.12 to 1 µg/mL (≈ 0.148 to 1.23 µM) | 0.12 to 0.25 µg/mL (≈ 0.148 to 0.308 µM) | 0.12 to 0.5 µg/mL (≈ 0.148 to 0.616 µM) |
| CN(C)c1cc(NC(=O)CN(C(=O)OCOC(=O)CC2CCCCC2)C(C)(C)C)c(O)c2c1C[C@H]1C[C@H]3[C@H](N(C)C)C(O)=C(C(N)=O)C(=O)[C@@]3(O)C(O)=C1C2=O [Example 65, ({[(2-{[(5aR,6aS,7S,10aS)-9-(aminocarbonyl)-4,7-bis(dimethylamino)-1,8,10a,11-tetrahydroxy-10,12-dioxo-5,5a,6,6a,7,10,10a,12-octahydrotetracen-2-yl]amino}-2-oxoethyl)(tert-butyl)amino]carbonyl}oxy)methyl cyclohexylacetate] | 0.12 to 0.5 µg/mL (≈ 0.153 to 0.638 µM) | 16 µg/mL (≈ 20.4 µM) | 0.12 to 0.5 µg/mL (≈ 0.153 to 0.638 µM) | 0.12 to 1 µg/mL (≈ 0.153 to 1.28 µM) |
| Cc1cccc(C)c1C(=O)OCOC(=O)N(CC(=O)Nc1cc(N(C)C)c2c(c1O)C(=O)C1=C(O)[C@]3(O)C(=O)C(C(N)=O)=C(O)[C@@H](N(C)C)[C@@H]3C[C@@H]1C2)C(C)(C)C [Example 66, ({[(2-{[(5aR,6aS,7S,10aS)-9-(aminocarbonyl)-4,7-bis(dimethylamino)-1,8,10a,11-tetrahydroxy-10,12-dioxo-5,5a,6,6a,7,10,10a,12-octahydrotetracen-2-yl]amino}-2-oxoethyl)(tert-butyl)amino]carbonyl}oxy)methyl 2,6-dimethylbenzoate] | > 128 µg/mL | > 128 µg/mL | 1 to 16 µg/mL (≈ 1.26 to 20.2 µM) | 2 to 16 µg/mL (≈ 2.53 to 20.2 µM) |
| CN(C)c1cc(NC(=O)CN(C(=O)OCOC(=O)Cc2ccccc2)C(C)(C)C)c(O)c2c1C[C@H]1C[C@H]3[C@H](N(C)C)C(O)=C(C(N)=O)C(=O)[C@@]3(O)C(O)=C1C2=O [Example 67, ({[(2-{[(5aR,6aS,7S,10aS)-9-(aminocarbonyl)-4,7-bis(dimethylamino)-1,8,10a,11-tetrahydroxy-10,12-dioxo-5,5a,6,6a,7,10,10a,12-octahydrotetracen-2-yl]amino}-2-oxoethyl)(tert-butyl)amino]carbonyl}oxy)methyl phenylacetate] | 0.12 to 0.25 µg/mL (≈ 0.154 to 0.321 µM) | 8 to 32 µg/mL (≈ 10.3 to 41.1 µM) | 0.12 to 0.25 µg/mL (≈ 0.154 to 0.321 µM) | 0.12 to 1 µg/mL (≈ 0.154 to 1.29 µM) |
| CN(C)c1cc(NC(=O)CN(C(=O)OCOC(=O)C(C)(C)C)C(C)(C)C)c(O)c2c1C[C@H]1C[C@H]3[C@H](N(C)C)C(O)=C(C(N)=O)C(=O)[C@@]3(O)C(O)=C1C2=O [Example 68, ({[(2-{[(5aR,6aS,7S,10aS)-9-(aminocarbonyl)-4,7-bis(dimethylamino)-1,8,10a,11-tetrahydroxy-10,12-dioxo-5,5a,6,6a,7,10,10a,12-octahydrotetracen-2-yl]amino}-2-oxoethyl)(tert-butyl)amino]carbonyl}oxy)methyl pivalate] | 0.12 to 1 µg/mL (≈ 0.161 to 1.34 µM) | 2 to 8 µg/mL (≈ 2.69 to 10.8 µM) | 0.12 to 0.25 µg/mL (≈ 0.161 to 0.336 µM) | 0.12 to 1 µg/mL (≈ 0.161 to 1.34 µM) |
| CN(C)c1cc(NC(=O)CN(C(=O)OCOC(=O)c2cc3ccccc3o2)C(C)(C)C)c(O)c2c1C[C@H]1C[C@H]3[C@H](N(C)C)C(O)=C(C(N)=O)C(=O)[C@@]3(O)C(O)=C1C2=O [Example 69, ({[(2-{[(5aR,6aS,7S,10aS)-9-(aminocarbonyl)-4,7-bis(dimethylamino)-1,8,10a,11-tetrahydroxy-10,12-dioxo-5,5a,6,6a,7,10,10a,12-octahydrotetracen-2-yl]amino}-2-oxoethyl)(tert-butyl)amino]carbonyl}oxy)methyl 1-benzofuran-2-carboxylate] | 0.12 to 0.5 µg/mL (≈ 0.149 to 0.622 µM) | 8 to 64 µg/mL (≈ 9.95 to 79.6 µM) | 0.12 to 0.25 µg/mL (≈ 0.149 to 0.311 µM) | 0.12 to 1 µg/mL (≈ 0.149 to 1.24 µM) |
| CN(C)c1cc(NC(=O)CN(C(=O)OCOC(=O)c2cccn2C)C(C)(C)C)c(O)c2c1C[C@H]1C[C@H]3[C@H](N(C)C)C(O)=C(C(N)=O)C(=O)[C@@]3(O)C(O)=C1C2=O [Example 70] | 4 to 8 µg/mL (≈ 5.22 to 10.4 µM) | > 64 µg/mL | 1 to 4 µg/mL (≈ 1.3 to 5.22 µM) | 2 to 4 µg/mL (≈ 2.61 to 5.22 µM) |
| COc1ccc(C(=O)OCOC(=O)N(CC(=O)Nc2cc(N(C)C)c3c(c2O)C(=O)C2=C(O)[C@]4(O)C(=O)C(C(N)=O)=C(O)[C@@H](N(C)C)[C@@H]4C[C@@H]2C3)C(C)(C)C)cc1 [Example 72, ({[(2-{[(5aR,6aS,7S,10aS)-9-(aminocarbonyl)-4,7-bis(dimethylamino)-1,8,10a,11-tetrahydroxy-10,12-dioxo-5,5a,6,6a,7,10,10a,12-octahydrotetracen-2-yl]amino}-2-oxoethyl)(tert-butyl)amino]carbonyl}oxy)methyl 4-methoxybenzoate] | 0.5 to 1 µg/mL (≈ 0.63 to 1.26 µM) | > 64 µg/mL | 0.5 to 1 µg/mL (≈ 0.63 to 1.26 µM) | 4 to 8 µg/mL (≈ 5.04 to 10.1 µM) |
| CN(C)c1cc(NC(=O)CN(C(=O)OCOC(=O)c2cc3ccccc3[nH]2)C(C)(C)C)c(O)c2c1C[C@H]1C[C@H]3[C@H](N(C)C)C(O)=C(C(N)=O)C(=O)[C@@]3(O)C(O)=C1C2=O [Example 73, ({[(2-{[(5aR,6aS,7S,10aS)-9-(aminocarbonyl)-4,7-bis(dimethylamino)-1,8,10a,11-tetrahydroxy-10,12-dioxo-5,5a,6,6a,7,10,10a,12-octahydrotetracen-2-yl]amino}-2-oxoethyl)(tert-butyl)amino]carbonyl}oxy)methyl 1H-indole-2-carboxylate] | 0.5 to 1 µg/mL (≈ 0.623 to 1.25 µM) | > 64 µg/mL | 1 to 4 µg/mL (≈ 1.25 to 4.98 µM) | 4 to 8 µg/mL (≈ 4.98 to 9.96 µM) |
| CN(C)c1cc(NC(=O)OCOC(=O)c2cccs2)c(O)c2c1C[C@H]1C[C@H]3[C@H](N(C)C)C(O)=C(C(N)=O)C(=O)[C@@]3(O)C(O)=C1C2=O [Example 75, [({[(5aR,6aS,7S,10aS)-9-(aminocarbonyl)-4,7-bis(dimethylamino)-1,8,10a,11-tetrahydroxy-10,12-dioxo-5,5a,6,6a,7,10,10a,12-octahydrotetracen-2-yl]amino}carbonyl)oxy]methyl thiophene-2-carboxylate] |  | > 64 µg/mL | 8 to 16 µg/mL (≈ 12.2 to 24.4 µM) | 16 to 32 µg/mL (≈ 24.4 to 48.7 µM) |
| CN(C)c1cc(NC(=O)OCOC(=O)c2ccc(F)cc2)c(O)c2c1C[C@H]1C[C@H]3[C@H](N(C)C)C(O)=C(C(N)=O)C(=O)[C@@]3(O)C(O)=C1C2=O [Example 76, [({[(5aR,6aS,7S,10aS)-9-(aminocarbonyl)-4,7-bis(dimethylamino)-1,8,10a, 1-tetrahydroxy-10,12-dioxo-5,5a,6,6a,7,10,10a,12-octahydrotetracen-2-yl]amino}carbonyl)oxy]methyl 4-fluorobenzoate] |  | > 64 µg/mL | 8 to 16 µg/mL (≈ 12 to 23.9 µM) | 8 to 32 µg/mL (≈ 12 to 47.9 µM) |
| Cc1cc(C)cc(C(=O)OCOC(=O)Nc2cc(N(C)C)c3c(c2O)C(=O)C2=C(O)[C@]4(O)C(=O)C(C(N)=O)=C(O)[C@@H](N(C)C)[C@@H]4C[C@@H]2C3)c1 [Example 77, [({[(5aR,6aS,7S,10aS)-9-(aminocarbonyl)-4,7-bis(dimethylamino)-1,8,10a,11-tetrahydroxy-10,12-dioxo-5,5a,6,6a,7,10,10a,12-octahydrotetracen-2-yl]amino}carbonyl)oxy]methyl 3,5-dimethylbenzoate] |  | > 64 µg/mL | 2 to 4 µg/mL (≈ 2.95 to 5.89 µM) | 4 to 32 µg/mL (≈ 5.89 to 47.1 µM) |
| CN(C)c1cc(NC(=O)OCOC(=O)C(C)(C)C)c(O)c2c1C[C@H]1C[C@H]3[C@H](N(C)C)C(O)=C(C(N)=O)C(=O)[C@@]3(O)C(O)=C1C2=O [Example 78, [({[(5aR,6aS,7S,10aS)-9-(aminocarbonyl)-4,7-bis(dimethylamino)-1,8,10a,11-tetrahydroxy-10,12-dioxo-5,5a,6,6a,7,10,10a,12-octahydrotetracen-2-yl]amino}carbonyl)oxy]methyl pivalate] | 16 to 64 µg/mL (≈ 25.4 to 101 µM) | > 64 µg/mL | 8 µg/mL (≈ 12.7 µM) | 8 to 32 µg/mL (≈ 12.7 to 50.7 µM) |
| CN(C)c1cc(NC(=O)OCOC(=O)CC(C)(C)C)c(O)c2c1C[C@H]1C[C@H]3[C@H](N(C)C)C(O)=C(C(N)=O)C(=O)[C@@]3(O)C(O)=C1C2=O [Example 79, [({[(5aR,6aS,7S,10aS)-9-(aminocarbonyl)-4,7-bis(dimethylamino)-1,8,10a,11-tetrahydroxy-10,12-dioxo-5,5a,6,6a,7,10,10a,12-octahydrotetracen-2-yl]amino}carbonyl)oxy]methyl 3,3-dimethylbutanoate] |  | > 64 µg/mL | 4 µg/mL (≈ 6.2 µM) | 4 to 8 µg/mL (≈ 6.2 to 12.4 µM) |
| CCC(C)(C)C(=O)OCOC(=O)Nc1cc(N(C)C)c2c(c1O)C(=O)C1=C(O)[C@]3(O)C(=O)C(C(N)=O)=C(O)[C@@H](N(C)C)[C@@H]3C[C@@H]1C2 [Example 80, [({[(5aR,6aS,7S,10aS)-9-(aminocarbonyl)-4,7-bis(dimethylamino)-1,8,10a,11-tetrahydroxy-10,12-dioxo-5,5a,6,6a,7,10,10a,12-octahydrotetracen-2-yl]amino}carbonyl)oxy]methyl 2,2-dimethylbutanoate] |  |  | 4 to 8 µg/mL (≈ 6.2 to 12.4 µM) | 4 to 16 µg/mL (≈ 6.2 to 24.8 µM) |
| CN(C)c1cc(NC(=O)CN(C(=O)OCOC(=O)c2cn(C)c3ccccc23)C(C)(C)C)c(O)c2c1C[C@H]1C[C@H]3[C@H](N(C)C)C(O)=C(C(N)=O)C(=O)[C@@]3(O)C(O)=C1C2=O [Example 83, ({[(2-{[(5aR,6aS,7S,10aS)-9-(aminocarbonyl)-4,7-bis(dimethylamino)-1,8,10a,11-tetrahydroxy-10,12-dioxo-5,5a,6,6a,7,10,10a,12-octahydrotetracen-2-yl]amino}-2-oxoethyl)(tert-butyl)amino]carbonyl}oxy)methyl 1-methyl-1H-indole-3-carboxylate] |  | > 64 µg/mL | 8 to 32 µg/mL (≈ 9.79 to 39.2 µM) | 2 to 16 µg/mL (≈ 2.45 to 19.6 µM) |
| CN(C)c1cc(NC(=O)CN(C(=O)OCOC(=O)c2ccc3ccccc3n2)C(C)(C)C)c(O)c2c1C[C@H]1C[C@H]3[C@H](N(C)C)C(O)=C(C(N)=O)C(=O)[C@@]3(O)C(O)=C1C2=O [Example 84, ({[(2-{[(5aR,6aS,7S,10aS)-9-(aminocarbonyl)-4,7-bis(dimethylamino)-1,8,10a,11-tetrahydroxy-10,12-dioxo-5,5a,6,6a,7,10,10a,12-octahydrotetracen-2-yl]amino}-2-oxoethyl)(tert-butyl)amino]carbonyl}oxy)methyl quinoline-2-carboxylate] | 2 to 4 µg/mL (≈ 2.45 to 4.91 µM) | > 64 µg/mL | 0.5 to 2 µg/mL (≈ 0.614 to 2.45 µM) | 0.5 to 4 µg/mL (≈ 0.614 to 4.91 µM) |
